Experimental data as given in patent publication US9937161B2, “Combinatorial compositions and methods for treatment of melanoma” (THE GENERAL HOSPITAL CORPORATION, priority 2013, dated 2018).

What was measured:
[1] = tested on: MEK; conditions: cited from earlier work
[2] = tested on: apoptosis; assay: Apoptosis, tigecycline with PLX4720; type: cell-based; conditions: combination with PLX4720
[3] = tested on: melanoma cell lines; assay: phospho-ERK Western blot, MEK inhibitor; type: cell-based; conditions: 10 nM, 24 h; all cell lines tested, including BRAF wild-type MeWo
Procedure: Whole cell lysates were prepared in lysis buffer supplemented with protease and phosphatase inhibitors (Roche). Equal amounts of protein were resolved by electrophoresis on gradient gels (Bio-Rad).
Antibodies used were as follows: MITF (C5 hybridoma); PGC1α (Calbiochem); α-tubulin (clone DM1A, Sigma); GAPDH, phospho-ERK1/2, and ERK1/2 (Cell Signaling Technology). Melanoma biopsies prior and during treatment were sectioned, embedded in paraffin and stained with the phospho-ERK1/2 antibody (Cell Signaling Technology). PLX4720 was used at 1 μM concentration in all assays, whereas control samples were treated with an equal volume of DMSO.

[4] = tested on: 12 breast, lung, colon and melanoma cell lines; assay: Public microarray (GSE10086) of PGC1α mRNA; conditions: 10 nM, 24 h; p<0.0001
[5] = tested on: melanoma cell lines; assay: PGC1α mRNA by quantitative PCR, MEK inhibitor; conditions: 10 nM, 24 h; all cell lines tested, including BRAF wild-type MeWo
[6] = tested on: TRPM1 and other direct targets of MITF; assay: Expression of MITF targets (microarray, qtPCR); conditions: published microarrays and qtPCR
[7] = tested on: BRAF-mutant non-melanomas; assay: Gene set enrichment analysis of non-melanomas treated with PD0325901
[8] = tested on: melanoma cell lines; assay: Gene set enrichment analysis of melanoma cell lines treated with PD0325901
[9] = tested on: MEK1/2; conditions: cited from earlier work
[10] = tested on: melanoma cells (M14); assay: Cell number, mitochondrial inhibitors combined with PLX4720
Procedure: (§1) Melanoma cell were treated for 24 h with PLX4720 then mitochondrial uncoupler for 48 h, prior to estimation of cell number.
as §1
Cell number was calculated using the CYQUANT® assay (INVITROGEN™) or crystal violet staining. Lactate measurements were done using the Lactate Assay (BioVision or SIGMA®) per manufacturer's protocols. Indicated cell lines were plated in complete media overnight. Media was changed to serum free-media to avoid interference with the assay for 16 h with either PLX4720 (3 μM) or PLX4032 (1 μM) or vehicle control prior to harvesting cells and measurement of lactate. Results were normalized to cell number. All assays were performed in logarithmically growing cells.

[11] = tested on: KIT mutated melanoma; conditions: case reports, retrospective and phase II studies; cited from earlier work
[12] = PD0325901, non-melanomas (N=7), gene set size 16
[13] = PD0325901, non-melanomas (N=7), gene set size 17
[14] = PD0325901, non-melanomas (N=7), gene set size 19
[15] = PD0325901, non-melanomas (N=7), gene set size 21
[16] = PD0325901, non-melanomas (N=7), gene set size 22
[17] = PD0325901, non-melanomas (N=7), gene set size 27
[18] = PD0325901, non-melanomas (N=7), gene set size 29
[19] = PD0325901, non-melanomas (N=7), gene set size 53
[20] = PD0325901, non-melanomas (N=7), gene set size 55
[21] = PD0325901, non-melanomas (N=7), gene set size 65
[22] = PD0325901, non-melanomas (N=7), gene set size 66
[23] = PD0325901, non-melanomas (N=7), gene set size 73
[24] = PD0325901 treated melanoma cell lines (n = 5), gene set size 15
[25] = PD0325901 treated melanoma cell lines (n = 5), gene set size 17
[26] = PD0325901 treated melanoma cell lines (n = 5), gene set size 19
[27] = PD0325901 treated melanoma cell lines (n = 5), gene set size 20
[28] = PD0325901 treated melanoma cell lines (n = 5), gene set size 21
[29] = PD0325901 treated melanoma cell lines (n = 5), gene set size 22
[30] = PD0325901 treated melanoma cell lines (n = 5), gene set size 24
[31] = PD0325901 treated melanoma cell lines (n = 5), gene set size 28
[32] = PD0325901 treated melanoma cell lines (n = 5), gene set size 44
[33] = PD0325901 treated melanoma cell lines (n = 5), gene set size 49
[34] = PD0325901 treated melanoma cell lines (n = 5), gene set size 55
[35] = PD0325901 treated melanoma cell lines (n = 5), gene set size 76
[36] = PD0325901 treated melanoma cell lines (n = 5), gene set size 107

Which “apoptosis induced by BRAF inhibitor PLX4720” value [2] does the source give for `CN(C)c1cc(NC(=O)CNC(C)(C)C)c(O)c2c1C[C@H]1C[C@H]3[C@H](N(C)C)C(O)=C(C(N)=O)C(=O)[C@@]3(O)C(O)=C1C2=O` [tigecycline, N-[(5aR,6aS,7S,9Z,10aS)-9-[amino(hydroxy)methylidene]-4,7-bis(dimethylamino)-1,10a,12-trihydroxy-8,10,11-trioxo-5,5a,6,6a,7,8,9,10,10a,11-decahydrotetracen-2-yl]-2-(tert-butylamino)acetamide] here?
Its value is “strongly potentiates apoptosis”.

Which results are given for `O=C(NOC[C@H](O)CO)c1ccc(F)c(F)c1Nc1ccc(I)cc1F` [PD0325901]?
ERK phosphorylation [3]: Suppression; PGC1α mRNA (public microarray) [4]: only affected PGC1α mRNA in melanoma cell lines; PGC1α mRNA [5]: induction; expression of TRPM1 and other direct targets of MITF [6]: induced; enrichment of oxidative phosphorylation or citric acid cycle gene sets ([7]; BRAF-mutant non-melanomas treated with PD0325901): no enrichment; ES, INSULIN_NIH3T3_UP [7, 12]: −0.6535; NES, INSULIN_NIH3T3_UP [7, 12]: −1.926; ES, ERK5PATHWAY [7, 13]: −0.4831; ES, SCHURINGA_STAT5A_DN [7, 13]: −0.6396; NES, ERK5PATHWAY [7, 13]: −1.639; NES, SCHURINGA_STAT5A_DN [7, 13]: −1.67; ES, PASSERINI_OXIDATION [7, 14]: −0.5358; NES, PASSERINI_OXIDATION [7, 14]: −1.657; ES, LOTEM_LEUKEMIA_UP [7, 15]: −0.6144; ES, ST_GA12_PATHWAY [7, 15]: −0.5512; NES, LOTEM_LEUKEMIA_UP [7, 15]: −1.935; NES, ST_GA12_PATHWAY [7, 15]: −1.683; ES, MPRPATHWAY [7, 16]: −0.5726; NES, MPRPATHWAY [7, 16]: −1.724; ES, HSA00566_ETHER_LIPID_METABOLISM [7, 17]: −0.6099; ES, HSA00591_LINOLEIC_ACID_METABOLISM [7, 17]: −0.6262; NES, HSA00566_ETHER_LIPID_METABOLISM [7, 17]: −1.836; NES, HSA00591_LINOLEIC_ACID_METABOLISM [7, 17]: −1.85; ES, HDACPATHWAY [7, 18]: −0.524; NES, HDACPATHWAY [7, 18]: −1.695; ES, HDACI_COLON_CLUSTER9 [7, 19]: −0.4566; NES, HDACI_COLON_CLUSTER9 [7, 19]: −1.716; ES, HSA00010_GLYCOLYSIS_AND_GLUCONEOGENESIS [7, 20]: −0.4307; NES, HSA00010_GLYCOLYSIS_AND_GLUCONEOGENESIS [7, 20]: −1.651; ES, MUNSHI_MM_UP [7, 21]: −0.4503; NES, MUNSHI_MM_UP [7, 21]: −1.811; ES, HSA04370_VEGF_SIGNALING_PATHWAY [7, 22]: −0.4932; NES, HSA04370_VEGF_SIGNALING_PATHWAY [7, 22]: −1.946; ES, HSA04664_FC_EPSILON_RI_SIGNALING_PATHWAY [7, 23]: −0.4516; NES, HSA04664_FC_EPSILON_RI_SIGNALING_PATHWAY [7, 23]: −1.711; ES, SARCOMAS_LEIOMYOSARCOMA_CALP_UP [8, 24]: −0.5939; NES, SARCOMAS_LEIOMYOSARCOMA_CALP_UP [8, 24]: −1.618; ES, TIS7_OVEREXP_DN [8, 25]: −0.6059; NES, TIS7_OVEREXP_DN [8, 25]: −1.666; ES, ATP_SYNTHESIS [8, 26]: −0.5886; ES, FLAGELLAR_ASSEMBLY [8, 26]: −0.5886; ES, TYPE_III_SECRETION_SYSTEM [8, 26]: −0.5886; NES, ATP_SYNTHESIS [8, 26]: −1.651; NES, FLAGELLAR_ASSEMBLY [8, 26]: −1.651; NES, TYPE_III_SECRETION_SYSTEM [8, 26]: −1.651; ES, PHOTOSYNTHESIS [8, 27]: −0.5675; NES, PHOTOSYNTHESIS [8, 27]: −1.596; ES, PHENYLALANINE_METABOLISM [8, 28]: −0.5653; NES, PHENYLALANINE_METABOLISM [8, 28]: −1.644; ES, BRENTANI_CYTOSKELETON [8, 29]: −0.5522; NES, BRENTANI_CYTOSKELETON [8, 29]: −1.762; ES, LIAN_MYELOID_DIFF_GRANULE [8, 30]: −0.6115; NES, LIAN_MYELOID_DIFF_GRANULE [8, 30]: −1.565; ES, TYROSINE_METABOLISM [8, 31]: −0.5609; NES, TYROSINE_METABOLISM [8, 31]: −1.668; ES, HPV31_DN [8, 32]: −0.511; NES, HPV31_DN [8, 32]: −1.584; ES, GLUCONEOGENESIS [8, 33]: −0.455; NES, GLUCONEOGENESIS [8, 33]: −1.548; ES, OXIDATIVE_PHOSPHORYLATION [8, 34]: −0.5314; NES, OXIDATIVE_PHOSPHORYLATION [8, 34]: −1.765; ES, VANASSE_BCL2_TARGETS [8, 35]: −0.3981; NES, VANASSE_BCL2_TARGETS [8, 35]: −1.55; ES, TPA_RESIST_MIDDLE_DN [8, 36]: −0.3946; NES, TPA_RESIST_MIDDLE_DN [8, 36]: −1.586; citric acid cycle and oxidative phosphorylation gene sets ([8]; melanoma cells treated with PD0325901): trend towards induction

For `Cc1cc(C(=O)NOCCO)c(Nc2ccc(I)cc2F)n(C)c1=O` [AZD8330], which IC50 [9] is on record?
The IC50 was 7 nM.

With `CC[C@@H]1/C=C/C=C/C[C@H](C)[C@H](O)[C@](C)(O)C(=O)[C@H](C)[C@@H](O)[C@H](C)C(=O)[C@H](C)[C@@H](O)[C@H](C)/C=C/C(=O)O[C@H]2[C@@H](C)[C@@H](CC1)O[C@@]1(CC[C@@H](C)[C@@H](C[C@H](C)O)O1)[C@@H]2C` [oligomycin A] as the compound, how does the “Combination Index with PLX4720 (additively enhanced the efficacy of PLX4720)” value ([10]; in vitro, cell number after 72 hrs) read?
The value was 0.9.

Which IC50 [1] does the source give for `Cn1c(=O)c(F)c(Nc2ccc(I)cc2F)c2c(=O)n(C[C@@H](O)CO)cnc21` [TAK-733] here?
Its IC50 is 3.2 nM.

With `CNC(=O)c1cc(Oc2ccc(NC(=O)Nc3ccc(Cl)c(C(F)(F)F)c3)cc2)ccn1` [sorafenib] as the compound, how does the clinical responses [11] read?
Its clinical responses is “clinical responses”.

For `N#CC(C#N)=NNc1cccc(Cl)c1` [CCCP], which “sensitivity of cells to the agent alone” value ([10]; M14 cells, 72 hrs) is on record?
The value was “relatively insensitive”.
